According to US12528815B2, “5-amino-8-(4-pyridyl)-[1,2,4]triazolo[4,3-c]pyrimidin-3-one compounds for use against cancer” (Nxera Pharma UK Limited, priority 2020, dated 2026):

Target: T1, human adenosine A2A receptor (Homo sapiens, UniProt P29274)
T1 construct: expressed in transfected cells; host or cells: HEK293 cells infected with BacMam
Assay: Inhibition binding assay, human adenosine A2A receptor membranes, [3H]ZM241385
Conditions: 1 nM [3H]ZM241385, HEK293-hA2A membranes, 25° C., 1 h; IC50 converted to Ki with Cheng-Prusoff; read-out: A2A pKi (converted)
Protocol: Inhibition binding assays were performed using 0.2 μg of membranes prepared from HEK293 cells infected with BacMam human adenosine A2A receptor or 1.4 μg of membranes prepared from HEK293 cells infected with BacMam human adenosine A1 receptor. Membranes were incubated in 50 mM Tris-HCl (HEK293-hA2A; pH 7.4) or 50 mM Tris-HCl, 100 mM NaCl, 10 mM MgCl2 (CHO-hA1; pH 7.4) in the presence of varying concentrations of test compound and 1 nM [^3H]ZM241385 (HEK293-hA2A) or [^3H]DPCPX (CHO-hA1) at 25° C. for 1 h. The assay was then terminated by rapid filtration onto GF/B grade Unifilter plates using a TomTec cell harvester, followed by 5×0.5 ml washes with ddH2O. Nonspecific binding was defined in the presence of 1 μM CGS15943 (HEK293-hA2A) or 1 μM DPCPX (CHO-hA1). Bound radioactivity was determined by liquid scintillation counting and inhibition curves were analysed using a four-parameter logistic equation. IC50 values were converted to Ki values with the Cheng-Prusoff equation using a KD value derived from saturation binding studies.

T1 sequence (P29274 whole entry): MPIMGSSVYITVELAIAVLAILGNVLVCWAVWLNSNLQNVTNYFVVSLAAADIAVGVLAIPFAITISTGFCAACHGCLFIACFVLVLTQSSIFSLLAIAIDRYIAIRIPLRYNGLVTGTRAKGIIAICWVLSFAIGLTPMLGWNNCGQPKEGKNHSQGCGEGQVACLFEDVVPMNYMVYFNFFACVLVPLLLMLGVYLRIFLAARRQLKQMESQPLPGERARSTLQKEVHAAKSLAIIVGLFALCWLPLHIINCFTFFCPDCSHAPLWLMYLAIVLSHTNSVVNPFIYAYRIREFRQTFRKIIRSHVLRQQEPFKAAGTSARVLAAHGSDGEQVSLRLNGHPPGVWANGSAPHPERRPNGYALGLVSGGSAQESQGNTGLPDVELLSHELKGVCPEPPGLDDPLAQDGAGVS

SMILES	Ki
COC(=O)N1CCCC(NCCn2nc3c(-c4cc(C)nc(C)c4)c(-c4ccccc4)nc(N)n3c2=O)C1 (stereo not shown) [Example 2-106, methyl 3-[2-[5-amino-8-(2,6-dimethyl-4-pyridyl)-3-oxo-7-phenyl-[1,2,4]triazolo[4,3-c]pyrimidin-2-yl]ethylamino]piperidine-1-carboxylate]	100 nM
Cc1cc(-c2c(-c3ccccc3)nc(N)n3c(=O)n(CCN4CCCC(C)C4)nc23)cc(C)n1 (stereo not shown) [Example 2-98, 5-amino-8-(2,6-dimethyl-4-pyridyl)-2-[2-(3-methyl-1-piperidyl)ethyl]-7-phenyl-[1,2,4]triazolo[4,3-c]pyrimidin-3-one]	20 nM
Cc1cc(-c2c(-c3ccccc3)nc(N)n3c(=O)n(CCN(C)C4(CO)CCc5ccccc5C4)nc23)cc(C)n1 (stereo not shown) [Example 1-99, 5-amino-8-(2,6-dimethyl-4-pyridyl)-2-[2-[[2-(hydroxymethyl)tetralin-2-yl]-methyl-amino]ethyl]-7-phenyl-[1,2,4]triazolo[4,3-c]pyrimidin-3-one]	39.8 nM
Cc1cc(-c2c(-c3ccccc3)nc(N)n3c(=O)n(Cc4ccc(C#N)cn4)nc23)cc(CO)n1 [Example 1-54, 6-[[5-amino-8-[2-(hydroxymethyl)-6-methyl-4-pyridyl]-3-oxo-7-phenyl-[1,2,4]triazolo[4,3-c]pyrimidin-2-yl]methyl]pyridine-3-carbonitrile]	158 nM
Cc1cc(-c2c(-c3ccccc3)nc(N)n3c(=O)n(CCC4CCN(CCC(=O)O)CC4)nc23)cc(C)n1 [Example 2-110, 3-[4-[2-[5-amino-8-(2,6-dimethyl-4-pyridyl)-3-oxo-7-phenyl-[1,2,4]triazolo[4,3-c]pyrimidin-2-yl]ethyl]-1-piperidyl]propanoic acid]	126 nM
CNC(=O)CCn1nc2c(-c3cc(C)nc(C)c3)c(-c3ccccc3)nc(N)n2c1=O [Example 2-113, 3-(5-amino-8-(2,6-dimethylpyridin-4-yl)-3-oxo-7-phenyl-[1,2,4]triazolo[4,3-c]pyrimidin-2(3H)-yl)-N-methylpropanamide]	25.1 nM
Cc1cnn(-c2nc(N)n3c(=O)n(CCC(F)(F)F)nc3c2-c2cc(C)nc(C)c2)c1 [Example 2-41, 5-amino-8-(2,6-dimethyl-4-pyridyl)-7-(4-methylpyrazol-1-yl)-2-(3,3,3-trifluoropropyl)-[1,2,4]triazolo[4,3-c]pyrimidin-3-one]	31.6 nM
Cc1cc(-c2c(-c3ccc(F)cc3)nc(N)n3c(=O)n(Cc4ccc(F)cn4)nc23)cc(CO)n1 [Example 1-59, 5-amino-7-(4-fluorophenyl)-2-[(5-fluoro-2-pyridyl)methyl]-8-[2-(hydroxymethyl)-6-methyl-4-pyridyl]-[1,2,4]triazolo[4,3-c]pyrimidin-3-one]	1.58 nM
Cc1cc(-c2c(-c3ccccc3)nc(N)n3c(=O)n(CCN4CCCCC4)nc23)cc(C)n1 [Example 2-96, 5-amino-8-(2,6-dimethyl-4-pyridyl)-7-phenyl-2-[2-(1-piperidyl)ethyl]-[1,2,4]triazolo[4,3-c]pyrimidin-3-one]	15.8 nM
Cc1cc(-c2c(-c3ccccc3)nc(N)n3c(=O)n(C[C@@H]4CN(C)CCN4C)nc23)cc(C)n1 [Example 2-87, (S)-5-amino-2-((1,4-dimethylpiperazin-2-yl)methyl)-8-(2,6-dimethylpyridin-4-yl)-7-phenyl-[1,2,4]triazolo[4,3-c]pyrimidin-3(2H)-one]	100 nM
Cc1cc(-c2c(-c3ccccc3)nc(N)n3c(=O)n(C[C@@H]4CNCCO4)nc23)cc(C)n1 [Example 2-71, (S)-5-amino-8-(2,6-dimethylpyridin-4-yl)-2-(morpholin-2-ylmethyl)-7-phenyl-[1,2,4]triazolo[4,3-c]pyrimidin-3(2H)-one]	31.6 nM
CCNC(=O)OCCn1nc2c(-c3cc(C)nc(C)c3)c(-c3ccccc3)nc(N)n2c1=O [Example 2-16, 2-[5-amino-8-(2,6-dimethyl-4-pyridyl)-3-oxo-7-phenyl-[1,2,4]triazolo[4,3-c]pyrimidin-2-yl]ethyl N-ethylcarbamate]	20 nM
Cc1cc(-c2c(-c3ccc(F)cc3)nc(N)n3c(=O)n(CC4CCCN=N4)nc23)cc(CO)n1 (stereo not shown) [Example 2-93, 5-amino-7-(4-fluorophenyl)-8-[2-(hydroxymethyl)-6-methyl-4-pyridyl]-2-(3,4,5,6-tetrahydropyridazin-3-ylmethyl)-[1,2,4]triazolo[4,3-c]pyrimidin-3-one]	31.6 nM
Cc1cc(-c2c(-c3ccccc3)nc(N)n3c(=O)n(C[C@H]4CNCCN4C)nc23)cc(C)n1 [Example 2-86, 5-amino-8-(2,6-dimethyl-4-pyridyl)-2-[[(2R)-1-methylpiperazin-2-yl]methyl]-7-phenyl-[1,2,4]triazolo[4,3-c]pyrimidin-3-one]	25.1 nM
Cc1cc(-c2c(-c3ccccc3)nc(N)n3c(=O)n(C(C)C)nc23)cc(C)n1 [Example 2-4, 5-amino-8-(2,6-dimethyl-4-pyridyl)-2-isopropyl-7-phenyl-[1,2,4]triazolo[4,3-c]pyrimidin-3-one]	50.1 nM
Cc1cc(-c2c(-c3ccccc3)nc(N)n3c(=O)n(C[C@@H]4CNCCN4C)nc23)cc(C)n1 [Example 2-88, 5-amino-8-(2,6-dimethyl-4-pyridyl)-2-[[(2S)-1-methylpiperazin-2-yl]methyl]-7-phenyl-[1,2,4]triazolo[4,3-c]pyrimidin-3-one]	79.4 nM
Cc1cc(-c2c(-c3ccccc3)nc(N)n3c(=O)n(C[C@H]4CN(C)CCO4)nc23)cc(C)n1 [Example 2-74, 5-amino-8-(2,6-dimethyl-4-pyridyl)-2-[[(2R)-4-methylmorpholin-2-yl]methyl]-7-phenyl-[1,2,4]triazolo[4,3-c]pyrimidin-3-one]	15.8 nM
COc1cc(-c2c(-c3ccc(F)cc3)nc(N)n3c(=O)n(Cc4ccc(C)cn4)nc23)cc(CO)n1 [Example 1-67, 5-amino-7-(4-fluorophenyl)-8-[2-(hydroxymethyl)-6-methoxy-4-pyridyl]-2-[(5-methyl-2-pyridyl)methyl]-[1,2,4]triazolo[4,3-c]pyrimidin-3-one]	0.794 nM
Cc1cc(-c2c(-c3ccccc3)nc(N)n3c(=O)n(C[C@H]4COCCN4C(=O)OC(C)(C)C)nc23)cc(C)n1 [Example 2-75, tert-butyl (3S)-3-[[5-amino-8-(2,6-dimethyl-4-pyridyl)-3-oxo-7-phenyl-[1,2,4]triazolo[4,3-c]pyrimidin-2-yl]methyl]morpholine-4-carboxylate]	100 nM
Cc1cc(-c2c(-c3ccccc3)nc(N)n3c(=O)n(CCC(N)=O)nc23)cc(C)n1 [Example 2-31, 3-[5-amino-8-(2,6-dimethyl-4-pyridyl)-3-oxo-7-phenyl-[1,2,4]triazolo[4,3-c]pyrimidin-2-yl]propanamide]	25.1 nM
Cc1cc(-c2c(-c3ccccc3)nc(N)n3c(=O)n(C[C@H]4CN(C)CCN4C)nc23)cc(C)n1 [Example 2-85, (R)-5-amino-2-((1,4-dimethylpiperazin-2-yl)methyl)-8-(2,6-dimethylpyridin-4-yl)-7-phenyl-[1,2,4]triazolo[4,3-c]pyrimidin-3(2H)-one]	7.94 nM
Cc1cc(-c2c(-c3ccccc3)nc(N)n3c(=O)n(CCN4CCC5CC54)nc23)cc(C)n1 (stereo not shown) [Example 2-95, 2-(2-(2-azabicyclo[3.1.0]hexan-2-yl)ethyl)-5-amino-8-(2,6-dimethylpyridin-4-yl)-7-phenyl-[1,2,4]triazolo[4,3-c]pyrimidin-3(2H)-one]	6.31 nM
